Experimental data published in publication doi:10.1101/2024.08.12.607575v1 (bioRxiv, 2024).
Bridge positions count the residues as written; N and C are the ends. Peptide text beside a SMILES is read from it.

What was measured:
[1] = test system: mouse bone marrow-derived macrophages (BMDMs); assay: Phagocytosis assay; format: cell-based; settings: 10 µM 4 h, washed, 48 h follow-up, relative to MACTIDE and untreated
human recombinant CD206 = biological target: T1, human recombinant CD206 (Homo sapiens, UniProt P22897); assay: Quartz Crystal Microbalance; format: binding; settings: QCM, PAH/CD206 multilayer
T1 sequence (P22897 19-1456): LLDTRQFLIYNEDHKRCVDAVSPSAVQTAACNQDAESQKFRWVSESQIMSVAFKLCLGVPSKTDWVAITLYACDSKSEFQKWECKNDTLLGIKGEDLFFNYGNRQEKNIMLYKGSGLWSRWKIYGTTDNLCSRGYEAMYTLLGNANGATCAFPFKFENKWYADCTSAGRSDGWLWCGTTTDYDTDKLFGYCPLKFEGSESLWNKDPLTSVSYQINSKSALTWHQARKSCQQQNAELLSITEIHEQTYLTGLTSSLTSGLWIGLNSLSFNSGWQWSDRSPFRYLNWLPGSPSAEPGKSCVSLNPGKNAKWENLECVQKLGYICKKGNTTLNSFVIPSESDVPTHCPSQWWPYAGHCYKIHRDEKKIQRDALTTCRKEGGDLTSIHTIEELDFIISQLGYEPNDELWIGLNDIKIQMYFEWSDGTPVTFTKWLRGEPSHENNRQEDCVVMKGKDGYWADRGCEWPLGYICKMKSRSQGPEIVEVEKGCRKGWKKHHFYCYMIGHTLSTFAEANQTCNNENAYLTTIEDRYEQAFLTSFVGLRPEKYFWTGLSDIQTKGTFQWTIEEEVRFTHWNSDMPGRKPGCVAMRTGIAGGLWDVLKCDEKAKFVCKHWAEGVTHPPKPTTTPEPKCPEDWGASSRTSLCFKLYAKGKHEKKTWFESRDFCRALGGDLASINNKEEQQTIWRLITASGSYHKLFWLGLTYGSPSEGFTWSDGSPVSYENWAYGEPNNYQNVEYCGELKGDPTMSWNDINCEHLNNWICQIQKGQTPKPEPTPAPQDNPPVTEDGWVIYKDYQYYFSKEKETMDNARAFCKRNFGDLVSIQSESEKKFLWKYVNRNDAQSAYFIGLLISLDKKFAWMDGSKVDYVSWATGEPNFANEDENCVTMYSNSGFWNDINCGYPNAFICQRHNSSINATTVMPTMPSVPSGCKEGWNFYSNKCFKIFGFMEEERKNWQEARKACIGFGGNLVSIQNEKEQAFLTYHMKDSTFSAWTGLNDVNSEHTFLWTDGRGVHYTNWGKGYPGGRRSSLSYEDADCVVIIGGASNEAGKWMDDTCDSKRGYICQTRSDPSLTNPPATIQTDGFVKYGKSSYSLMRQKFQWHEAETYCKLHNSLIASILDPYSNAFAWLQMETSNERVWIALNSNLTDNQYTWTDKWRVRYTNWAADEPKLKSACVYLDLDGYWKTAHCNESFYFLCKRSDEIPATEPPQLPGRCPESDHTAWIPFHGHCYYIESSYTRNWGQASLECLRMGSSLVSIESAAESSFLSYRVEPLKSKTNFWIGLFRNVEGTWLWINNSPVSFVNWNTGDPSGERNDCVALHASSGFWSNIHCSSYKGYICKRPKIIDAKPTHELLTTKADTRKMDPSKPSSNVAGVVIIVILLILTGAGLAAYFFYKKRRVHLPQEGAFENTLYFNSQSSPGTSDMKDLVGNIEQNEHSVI

CD206 = settings: recognition moiety for CD206; cited from earlier work
orthotopic 4T1.2 tumors = assay: MACTIDE-V monotherapy in orthotopic 4T1.2; format: in vivo, mouse; settings: for CD8+ T cell density (mIHC): n=6 mice/group
orthotopic 4T1 tumors = assay: In vivo photodynamic therapy / treatment in orthotopic 4T1; design: species or system mouse; settings: 30 nmoles i.p., no irradiation, compared with irradiated MACTIDE-V
[2] = test system: mouse bone marrow-derived macrophages (BMDMs); assay: Flow cytometry of BMDM markers; format: cell-based; settings: Balb/C BMDMs, 48 h after treatment, not statistically significant
[3] = tumor cell suspensions, n=4 per group

Q: What does the source list for `CC[C@H](C)[C@@H]1NC(=O)[C@@H]2CCCN2C(=O)[C@@H]2CCCN2C(=O)[C@H]([C@@H](C)CC)NC(=O)[C@H](CO)NC(=O)[C@H](CCCCN)NC(=O)[C@H]([C@@H](C)O)NC(=O)[C@@H](NC(=O)CN)CSSC[C@@H](C(=O)N[C@@H](CO)C(=O)N2CCC[C@H]2C(=O)NCC(=O)N[C@@H](C)C(=O)N[C@@H](CCCCN)C(=O)O)NC1=O` [MACTIDE] (H-GCTKSIPPICSPGAK-OH; disulfide 2-10)?
A: phagocytosis of fluorescent E. coli particles [1]: no effects; dissociation upon washing with PBS (human recombinant CD206): incompletely and slowly dissociated

Q: For `OC[C@H]1OC(O)[C@@H](O)[C@@H](O)[C@@H]1O` (stereo partly drawn) [mannose], which affinity of mannose (CD206) is on record?
A: low millimolar range

Q: With “Vert-Ahx-AKPCGS-OH [CtrlPep-V, reference compound]” as the compound, how does the “CD8+ T cell density (mIHC)” value (orthotopic 4T1.2 tumors) read?
A: trend of increased CD8^+ T cell density

Q: Which results are given for “Vert-Ahx-G(CTKSIPPIC)SPGAK-OH (disulfide) [MACTIDE-V]”?
A: CD8+ T cell density (mIHC) (orthotopic 4T1.2 tumors): trend of increased CD8^+ T cell density; percentage of CD206+ cells in tumor (flow cytometry) (orthotopic 4T1.2 tumors; [3]): did not reduce; polymorphonuclear (PMN) or TAM/monocyte cell populations (flow cytometry) (orthotopic 4T1.2 tumors; [3]): no effects; body weight, non-irradiated (-) (orthotopic 4T1 tumors): less effect on body weight; viability and differentiation of BMDMs [2]: slightly affected
